Measured values: PubChem BioAssay (NCI)
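48-hour exposure; five concentrations; linearly interpolated endpoints. Abbreviation: GI50, concentration required for 50% inhibition of growth. TGI marks complete inhibition of growth.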

How the values were obtained:
Experiment in all cases: NCI tumour cell line growth inhibition, 48 h
[1] = system: A549 NSCLC
[2] = system: OVCAR-8 ovarian
[3] = system: SK-MEL-5 melanoma
[4] = system: CAKI-1 renal
[5] = system: NCI-H23 lung
[6] = system: LOX IMVI melanoma
[7] = system: HOP-92 NSCLC
[8] = system: CCRF-CEM leukemia
[9] = system: HCT-116 colon
[10] = system: SK-OV-3 ovarian

What does the source list for `CC[C@H](C)[C@H]1NC(=O)[C@@H](NC(=O)[C@@H](CC(C)C)N(C)CC2CCCN2C(=O)C(C)=O)[C@@H](C)OC(=O)[C@H](Cc2ccc(OC)cc2)N(C)C(=O)C2CCCN2C(=O)[C@H](CC(C)C)NC(=O)[C@@H](C)C(=O)[C@H](C(C)C)OC(=O)C[C@@H]1O` (some centres not stated)?
TGI [1]: 0.0335 µM; TGI [2]: 0.0474 µM; TGI [3]: 0.00843 µM; TGI [4]: 0.338 µM; TGI [5]: 0.0591 µM; TGI [6]: 0.00861 µM; TGI [7]: 0.0292 µM; TGI [8]: 0.00404 µM; TGI [9]: 0.0102 µM; TGI [10]: 0.0194 µM

What does the source list for `Oc1[nH]c2ccccc2c1N=Nc1nc(-c2ccc(Cl)c(Cl)c2)cs1`?
TGI [1]: > 100 µM; TGI [2]: > 100 µM; TGI [3]: > 100 µM; TGI [4]: > 100 µM; TGI [5]: > 100 µM; TGI [6]: > 100 µM; TGI [7]: > 100 µM; TGI [9]: > 100 µM; TGI [10]: > 100 µM

For `O=[Se](=O)c1ccccc1.O=[Se](=O)c1ccccc1.[Cu]`, which GI50 [1] is on record?
Its GI50 is 26 µM.

And the TGI [1]?
Its TGI is 52.2 µM.

And the GI50 [2]?
The GI50 was 15.9 µM.

What about the TGI [2] of the same compound?
Its TGI is 30.2 µM.

What about the GI50 [3] of the same compound?
Its GI50 is 19 µM.

And the TGI [3]?
The TGI was 34.9 µM.

What about the GI50 [4] of the same compound?
The GI50 was 22.8 µM.

And the TGI [4]?
Its TGI is 38.9 µM.

What about the GI50 [5] of the same compound?
The GI50 was 13.5 µM.

What about the TGI [5] of the same compound?
Its TGI is 30.1 µM.

And the GI50 [6]?
The GI50 was 7.65 µM.

And the TGI [6]?
The TGI was 19.5 µM.

And the GI50 [7]?
The GI50 was 21.4 µM.

And the TGI [7]?
The TGI was 37.3 µM.

What about the GI50 [8] of the same compound?
The GI50 was 7.98 µM.

What about the TGI [8] of the same compound?
Its TGI is 62.7 µM.

What about the GI50 [9] of the same compound?
The GI50 was 17.4 µM.

And the TGI [9]?
Its TGI is 33 µM.

What about the GI50 [10] of the same compound?
Its GI50 is 27.3 µM.

And the TGI [10]?
Its TGI is 42.1 µM.

Which TGI [1] does the source give for `COc1cc(/C=C2\N=C(c3ccccc3)N(c3nc4c(OC)ccc(OC)c4s3)C2=O)cc(OC)c1OC` here?
The TGI was > 100 µM.

And the TGI [2]?
The TGI was > 100 µM.

And the TGI [3]?
The TGI was > 100 µM.

And the TGI [4]?
Its TGI is > 100 µM.

And the TGI [5]?
The TGI was > 100 µM.

And the TGI [6]?
The TGI was > 100 µM.

What about the TGI [7] of the same compound?
The TGI was > 100 µM.

And the TGI [8]?
The TGI was > 100 µM.

What about the TGI [9] of the same compound?
Its TGI is > 100 µM.

What about the TGI [10] of the same compound?
The TGI was > 100 µM.

For `O=c1[nH]c(=O)n(Cc2ccccc2CO)cc1Sc1ccccc1`, which TGI [1] is on record?
Its TGI is 43.2 µM.

And the TGI [2]?
Its TGI is 48.2 µM.

What about the TGI [3] of the same compound?
Its TGI is 26.7 µM.

What about the TGI [4] of the same compound?
The TGI was 27.2 µM.

What about the TGI [5] of the same compound?
Its TGI is 39.9 µM.

And the TGI [7]?
The TGI was > 100 µM.

And the TGI [8]?
Its TGI is > 100 µM.

What about the TGI [9] of the same compound?
The TGI was 64.7 µM.

And the TGI [10]?
The TGI was > 100 µM.

For `O=C1C=C(Br)c2c(Br)sc(Br)c21`, which TGI [1] is on record?
Its TGI is > 77.3 µM.

What about the TGI [2] of the same compound?
Its TGI is 12.1 µM.

What about the TGI [3] of the same compound?
Its TGI is 31.4 µM.

What about the TGI [4] of the same compound?
The TGI was 26.6 µM.

What about the TGI [5] of the same compound?
The TGI was 25.6 µM.

And the TGI [6]?
Its TGI is 5.77 µM.

What about the TGI [7] of the same compound?
The TGI was 7.64 µM.

What about the TGI [9] of the same compound?
Its TGI is 30.4 µM.

And the TGI [10]?
The TGI was 64.3 µM.

What does the source list for `OC1(c2cc3ccccc3s2)CCCCC1`?
TGI [1]: > 100 µM; TGI [2]: > 100 µM; TGI [3]: > 100 µM; TGI [4]: > 100 µM; TGI [5]: > 100 µM; TGI [6]: > 100 µM; TGI [7]: > 100 µM; TGI [8]: 66.7 µM; TGI [9]: > 100 µM; TGI [10]: > 100 µM

How did the TGI [1] turn out when `Cc1ccc(N2CCc3c(C)c(C#N)c4nc5ccccc5n4c32)cc1` was run?
The TGI was > 100 µM.

What about the TGI [2] of the same compound?
The TGI was > 100 µM.

What about the TGI [3] of the same compound?
The TGI was > 100 µM.

And the TGI [4]?
Its TGI is > 100 µM.

What about the TGI [5] of the same compound?
Its TGI is > 100 µM.

What about the TGI [6] of the same compound?
Its TGI is > 100 µM.

And the TGI [7]?
The TGI was 57.5 µM.

And the TGI [8]?
Its TGI is > 100 µM.

What about the TGI [9] of the same compound?
The TGI was > 100 µM.

What about the TGI [10] of the same compound?
Its TGI is > 100 µM.

With `COC(OC)C1OC(CO)C(n2ccc(N)nc2=O)C1O` (configuration not stated) as the compound, how does the TGI [1] read?
Its TGI is > 100 µM.

What about the TGI [2] of the same compound?
The TGI was > 100 µM.

And the TGI [3]?
Its TGI is > 100 µM.

And the TGI [4]?
The TGI was > 100 µM.

What about the TGI [5] of the same compound?
Its TGI is > 100 µM.

What about the TGI [6] of the same compound?
Its TGI is > 100 µM.

And the TGI [7]?
The TGI was > 100 µM.

And the TGI [8]?
Its TGI is > 100 µM.

What about the TGI [9] of the same compound?
The TGI was > 100 µM.

What about the TGI [10] of the same compound?
Its TGI is > 100 µM.
